{"source": "PubChem BioAssay AID248", "about": "(DTP/NCI, 2004)", "system": "L1210 leukemia ip in BDF1 mice, survival T/C", "test": "NCI In Vivo Anticancer Drug Screen. Data for tumor model L1210 Leukemia (intraperitoneal) in B6D2F1 (BDF1) mice", "settings": "endpoint: mean survival time, higher = longer survival", "method_in_brief": "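Survival endpoint. Drug-treated group vs vehicle group, expressed as T divided by C. Tumor passaged by transplantation.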", "key": {"[1]": {"settings": "dose: 25.0 mg/kg/injection, schedule: Q01DX001 (ip), vehicle: saline"}}, "note": "Several values for one entry are separate records, joined by “and”; a condition that tells them apart may be missing. Identical values can stand only once. Toxic doses and inconclusive results are not listed.", "data": [{"smiles": "O=NN(CCCl)C(=O)NC1CCCC1", "values": [{"measurement": "T/C", "setting": "dose: 3.0 mg/kg/injection, schedule: Q01DX001 (ip), vehicle: saline", "result": "108 % of control"}, {"measurement": "T/C", "setting": "dose: 6.0 mg/kg/injection, schedule: Q01DX001 (ip), vehicle: saline", "result": "108 % of control"}, {"measurement": "T/C", "setting": "dose: 12.0 mg/kg/injection, schedule: Q01DX001 (ip), vehicle: saline", "result": "112 % of control"}, {"measurement": "T/C", "setting": "dose: 18.0 mg/kg/injection, schedule: Q01DX001 (ip), vehicle: saline", "result": "118 % of control"}, {"measurement": "T/C", "setting": "[1]", "result": "162 % of control"}, {"measurement": "T/C", "setting": "dose: 30.0 mg/kg/injection, schedule: Q01DX001 (ip), vehicle: saline", "result": "222 % of control"}, {"measurement": "T/C", "setting": "dose: 44.0 mg/kg/injection, schedule: Q01DX001 (ip), vehicle: saline", "result": "302 % of control"}, {"measurement": "T/C", "setting": "dose: 50.0 mg/kg/injection, schedule: Q01DX001 (ip), vehicle: saline", "result": "328 % of control"}, {"measurement": "T/C", "setting": "dose: 67.0 mg/kg/injection, schedule: Q01DX001 (ip), vehicle: saline", "result": "278 % of control"}, {"measurement": "T/C", "setting": "dose: 93.0 mg/kg/injection, schedule: Q01DX001 (ip), vehicle: saline", "result": "243 % of control"}, {"measurement": "T/C", "setting": "dose: 100.0 mg/kg/injection, schedule: Q01DX001 (ip), vehicle: saline", "result": "224 % of control and 333 % of control"}, {"measurement": "T/C", "setting": "dose: 150.0 mg/kg/injection, schedule: Q01DX001 (ip), vehicle: saline", "result": "295 % of control"}, {"measurement": "T/C", "setting": "dose: 187.0 mg/kg/injection, schedule: Q01DX001 (ip), vehicle: saline", "result": "197 % of control"}, {"measurement": "T/C", "setting": "dose: 375.0 mg/kg/injection, schedule: Q01DX001 (ip), vehicle: saline", "result": "283 % of control"}, {"measurement": "T/C", "setting": "dose: 500.0 mg/kg/injection, schedule: Q01DX001 (ip), vehicle: saline", "result": "327 % of control"}]}, {"smiles": "CC(C)c1ccc2c(c1)CCC1C2CCCC1(C)NCc1ccccc1", "note": "(stereo unspecified)", "values": [{"measurement": "T/C", "setting": "dose: 55.0 mg/kg/injection, schedule: Q01DX Z (ip), vehicle: methylcellulose (MC)", "result": "87 % of control"}]}, {"smiles": "C1C2CC3C1C1CN3C21", "note": "(stereo unspecified)", "values": [{"measurement": "T/C", "setting": "dose: 6.25 mg/kg/injection, schedule: Q01DX001 (ip), vehicle: saline", "result": "100 % of control"}, {"measurement": "T/C", "setting": "dose: 12.5 mg/kg/injection, schedule: Q01DX001 (ip), vehicle: saline", "result": "97 % of control"}, {"measurement": "T/C", "setting": "[1]", "result": "111 % of control"}]}, {"smiles": "CC(=O)Nn1cnc2c(SCc3ccccc3)ncnc21", "values": [{"measurement": "T/C", "setting": "dose: 100.0 mg/kg/injection, schedule: Q01DX001 (ip), vehicle: other", "result": "96 % of control"}, {"measurement": "T/C", "setting": "dose: 177.0 mg/kg/injection, schedule: Q01DX001 (ip), vehicle: other", "result": "105 % of control"}, {"measurement": "T/C", "setting": "dose: 200.0 mg/kg/injection, schedule: Q01DX001 (ip), vehicle: other", "result": "100 % of control"}, {"measurement": "T/C", "setting": "dose: 266.0 mg/kg/injection, schedule: Q01DX001 (ip), vehicle: other", "result": "115 % of control"}]}, {"smiles": "O=c1[nH]cnc2ccnn12", "values": [{"measurement": "T/C", "setting": "dose: 50.0 mg/kg/injection, schedule: Q01DX009 (ip), vehicle: saline", "result": "104 % of control"}, {"measurement": "T/C", "setting": "dose: 100.0 mg/kg/injection, schedule: Q01DX009 (ip), vehicle: saline", "result": "107 % of control"}, {"measurement": "T/C", "setting": "dose: 100.0 mg/kg/injection, schedule: Q04DX003 (ip), vehicle: saline", "result": "97 % of control"}, {"measurement": "T/C", "setting": "dose: 200.0 mg/kg/injection, schedule: Q04DX003 (ip), vehicle: saline", "result": "92 % of control"}]}, {"smiles": "C1=C2CN3CCC45c6ccccc6N6CCC(OC1)C(C2CC34)C65", "note": "(stereo unspecified)", "values": [{"measurement": "T/C", "setting": "dose: 1.25 mg/kg/injection, schedule: Q01DX001 (ip), vehicle: other", "result": "105 % of control"}]}, {"smiles": "O=C1c2ccccc2C(c2ccccc2)(N(CCCl)CCCl)N1C1CCCCC1", "note": "(stereo unspecified)", "values": [{"measurement": "T/C", "setting": "dose: 100.0 mg/kg/injection, schedule: Q04DX003 (ip), vehicle: Klucel (hydroxypropylcellulose) (HPC)", "result": "103 % of control"}, {"measurement": "T/C", "setting": "dose: 200.0 mg/kg/injection, schedule: Q04DX003 (ip), vehicle: Klucel (hydroxypropylcellulose) (HPC)", "result": "102 % of control"}, {"measurement": "T/C", "setting": "dose: 400.0 mg/kg/injection, schedule: Q04DX003 (ip), vehicle: Klucel (hydroxypropylcellulose) (HPC)", "result": "97 % of control"}]}, {"smiles": "N#CC(C#N)=Cc1cccnc1", "values": [{"measurement": "T/C", "setting": "dose: 12.5 mg/kg/injection, schedule: Q04DX003 (ip), vehicle: Klucel (hydroxypropylcellulose) (HPC)", "result": "98 % of control"}, {"measurement": "T/C", "setting": "dose: 25.0 mg/kg/injection, schedule: Q04DX003 (ip), vehicle: Klucel (hydroxypropylcellulose) (HPC)", "result": "100 % of control"}, {"measurement": "T/C", "setting": "dose: 50.0 mg/kg/injection, schedule: Q01DX001 (ip), vehicle: carboxymethylcellulose (CMC)", "result": "101 % of control"}, {"measurement": "T/C", "setting": "dose: 50.0 mg/kg/injection, schedule: Q04DX003 (ip), vehicle: Klucel (hydroxypropylcellulose) (HPC)", "result": "93 % of control and 104 % of control"}, {"measurement": "T/C", "setting": "dose: 100.0 mg/kg/injection, schedule: Q01DX001 (ip), vehicle: carboxymethylcellulose (CMC)", "result": "98 % of control"}]}, {"smiles": "CC(C)C(NC(=O)C(F)(F)F)C(=O)O", "note": "(stereo unspecified)", "values": [{"measurement": "T/C", "setting": "dose: 87.5 mg/kg/injection, schedule: Q04DX003 (ip), vehicle: saline", "result": "90 % of control"}, {"measurement": "T/C", "setting": "dose: 175.0 mg/kg/injection, schedule: Q04DX003 (ip), vehicle: saline", "result": "89 % of control"}]}, {"smiles": "O=C1C(c2ccccc2)=Nc2ccccc21", "values": [{"measurement": "T/C", "setting": "dose: 100.0 mg/kg/injection, schedule: Q04DX002 (ip), vehicle: saline with Tween-80", "result": "88 % of control"}, {"measurement": "T/C", "setting": "dose: 200.0 mg/kg/injection, schedule: Q04DX002 (ip), vehicle: saline with Tween-80", "result": "88 % of control"}, {"measurement": "T/C", "setting": "dose: 400.0 mg/kg/injection, schedule: Q04DX002 (ip), vehicle: saline with Tween-80", "result": "90 % of control"}]}, {"smiles": "CCN(CC)CC1CO1", "note": "(stereo unspecified)", "values": [{"measurement": "T/C", "setting": "dose: 7.5 mg/kg/injection, schedule: Q01DX009 (ip), vehicle: saline", "result": "102 % of control"}, {"measurement": "T/C", "setting": "dose: 15.0 mg/kg/injection, schedule: Q01DX009 (ip), vehicle: saline", "result": "97 % of control"}]}, {"smiles": "C1=Nc2cc3c(cc2Cn2cccc21)OCO3", "values": [{"measurement": "T/C", "setting": "dose: 25.0 mg/kg/injection, schedule: Q04DX002 (ip), vehicle: Klucel (hydroxypropylcellulose) (HPC)", "result": "86 % of control"}, {"measurement": "T/C", "setting": "dose: 50.0 mg/kg/injection, schedule: Q04DX002 (ip), vehicle: Klucel (hydroxypropylcellulose) (HPC)", "result": "94 % of control"}, {"measurement": "T/C", "setting": "dose: 100.0 mg/kg/injection, schedule: Q04DX002 (ip), vehicle: Klucel (hydroxypropylcellulose) (HPC)", "result": "94 % of control"}]}]}
